Organism: Rattus norvegicus
Assay: Open TG-GATES - Regimen: Daily Repeat
Assay type: toxicity, organism-based, Sprague-Dawley
Set-up: regimen Daily Repeat, gender Male, age 6 weeks
Settings: in vivo, iv, 2000 mg/kg, route intravenous injection, dose level High; for APTT / Bas / Eos / Fbg / Hb / Ht / Lym / MCH / MCHC / MCV / Mono / Neu / PT / Plat / RBC / Ret / WBC: tissue Blood; for KIDNEY_L / KIDNEY_R / KIDNEY_TOTAL: tissue Kidney; for LIVER: tissue Liver; for ALP / ALT / AST / BUN / CRE / Ca / Cl / DBIL / GLC / IP / K / LDH / Na / PL / RALB / TBIL / TC / TG / TP / gamma-GTP: tissue Plasma

With CC(=O)OCC1=C(C(=O)O)N2C(=O)[C@@H](NC(=O)Cc3cccs3)[C@H]2SC1 [CEPHALOTHIN] the TERMINAL_BW (72 h, time 3 day) was 233 g, the APTT (72 h, time 3 day) was 22.3 s and the Bas (72 h, time 3 day) was 0%. For the same compound, the Eos (72 h, time 3 day) was 1.2%, the Fbg (72 h, time 3 day) was 311.4 mg/dL and the Hb (72 h, time 3 day) was 13.7 g/dL. The Ht (72 h, time 3 day) was 38.7%, the Lym (72 h, time 3 day) was 87.2% and the MCH (72 h, time 3 day) was 21.3 pg. It also gave an MCHC (72 h, time 3 day) of 35.3%, an MCV (72 h, time 3 day) of 60.3 fL and a Mono (72 h, time 3 day) of 2.2%. It also gave a Neu (72 h, time 3 day) of 9%, a PT (72 h, time 3 day) of 16.2 s and a Plat (72 h, time 3 day) of 128.7 x10_4/uL. The RBC (72 h, time 3 day) was 642 x10_4/ul, the Ret (72 h, time 3 day) was 4.9% and the WBC (72 h, time 3 day) was 71.5 x10_2/uL. It also gave a KIDNEY_L (72 h, time 3 day) of 1 g, a KIDNEY_R (72 h, time 3 day) of 1 g and a KIDNEY_TOTAL (72 h, time 3 day) of 2.1 g. For the same compound, the LIVER (72 h, time 3 day) was 10.2 g, the ALP (72 h, time 3 day) was 1558.6 IU/L and the ALT (72 h, time 3 day) was 43 IU/L. It also gave an AST (72 h, time 3 day) of 72.2 IU/L, a BUN (72 h, time 3 day) of 17.6 mg/dL and a CRE (72 h, time 3 day) of 0.2 mg/dL. The Ca (72 h, time 3 day) was 10.4 mg/dL, the Cl (72 h, time 3 day) was 106 meq/L and the DBIL (72 h, time 3 day) was 0.004 mg/dL. It also gave a GLC (72 h, time 3 day) of 173.6 mg/dL, an IP (72 h, time 3 day) of 7.5 mg/dL and a K (72 h, time 3 day) of 4.4 meq/L. It also gave an LDH (72 h, time 3 day) of 152.4 IU/L, a Na (72 h, time 3 day) of 141.6 meq/L and a PL (72 h, time 3 day) of 132.8 mg/dL. The RALB (72 h, time 3 day) was 3.1 g/dL, the TBIL (72 h, time 3 day) was 0.03 mg/dL and the TC (72 h, time 3 day) was 80.6 mg/dL. For the same compound, the TG (72 h, time 3 day) was 40.4 mg/dL, the TP (72 h, time 3 day) was 5.5 g/dL and the gamma-GTP (72 h, time 3 day) was 1.8 IU/L. For the same compound, the TERMINAL_BW ([…], time 7 day) was 255 g, the TERMINAL_BW ([…], time 14 day) was 294.7 g and the TERMINAL_BW ([…], time 28 day) was 341.3 g. For the same compound, the APTT ([…], time 7 day) was 22.8 s, the Bas ([…], time 7 day) was 0% and the Eos ([…], time 7 day) was 0.8%. The Fbg ([…], time 7 day) was 347.2 mg/dL, the Hb ([…], time 7 day) was 13.4 g/dL and the Ht ([…], time 7 day) was 38.1%. For the same compound, the Lym ([…], time 7 day) was 83.8%, the MCH ([…], time 7 day) was 20.8 pg and the MCHC ([…], time 7 day) was 35.1%. For the same compound, the MCV ([…], time 7 day) was 59.4 fL, the Mono ([…], time 7 day) was 2.4% and the Neu ([…], time 7 day) was 12.4%. It also gave a PT ([…], time 7 day) of 16.7 s, a Plat ([…], time 7 day) of 132.5 x10_4/uL and an RBC ([…], time 7 day) of 642.8 x10_4/ul. For the same compound, the Ret ([…], time 7 day) was 6.3%, the WBC ([…], time 7 day) was 96.8 x10_2/uL and the APTT ([…], time 14 day) was 23.6 s. For the same compound, the Bas ([…], time 14 day) was 0%, the Eos ([…], time 14 day) was 1% and the Fbg ([…], time 14 day) was 269.2 mg/dL. For the same compound, the Hb ([…], time 14 day) was 14.4 g/dL, the Ht ([…], time 14 day) was 40.1% and the Lym ([…], time 14 day) was 84.6%. For the same compound, the MCH ([…], time 14 day) was 20.7 pg, the MCHC ([…], time 14 day) was 35.9% and the MCV ([…], time 14 day) was 57.5 fL. It also gave a Mono ([…], time 14 day) of 2%, a Neu ([…], time 14 day) of 12% and a PT ([…], time 14 day) of 16 s. The Plat ([…], time 14 day) was 117.3 x10_4/uL, the RBC ([…], time 14 day) was 695.2 x10_4/ul and the Ret ([…], time 14 day) was 5%. For the same compound, the WBC ([…], time 14 day) was 118.2 x10_2/uL, the APTT ([…], time 28 day) was 24.6 s and the Bas ([…], time 28 day) was 0%. It also gave an Eos ([…], time 28 day) of 1.6%, a Fbg ([…], time 28 day) of 283.8 mg/dL and a Hb ([…], time 28 day) of 15.6 g/dL. The Ht ([…], time 28 day) was 42.2%, the Lym ([…], time 28 day) was 84.8% and the MCH ([…], time 28 day) was 19.6 pg. The MCHC ([…], time 28 day) was 37%, the MCV ([…], time 28 day) was 52.9 fL and the Mono ([…], time 28 day) was 2.4%. The Neu ([…], time 28 day) was 10.8%, the PT ([…], time 28 day) was 16.1 s and the Plat ([…], time 28 day) was 100.5 x10_4/uL. The RBC ([…], time 28 day) was 797.8 x10_4/ul, the Ret ([…], time 28 day) was 3.2% and the WBC ([…], time 28 day) was 103.9 x10_2/uL. It also gave a KIDNEY_L ([…], time 7 day) of 1.1 g, a KIDNEY_R ([…], time 7 day) of 1.1 g and a KIDNEY_TOTAL ([…], time 7 day) of 2.2 g. The KIDNEY_L ([…], time 14 day) was 1.2 g, the KIDNEY_R ([…], time 14 day) was 1.2 g and the KIDNEY_TOTAL ([…], time 14 day) was 2.4 g. The KIDNEY_L ([…], time 28 day) was 1.4 g, the KIDNEY_R ([…], time 28 day) was 1.4 g and the KIDNEY_TOTAL ([…], time 28 day) was 2.7 g. For the same compound, the LIVER ([…], time 7 day) was 12 g, the LIVER ([…], time 14 day) was 12.9 g and the LIVER ([…], time 28 day) was 13.8 g. The ALP ([…], time 7 day) was 1549.6 IU/L, the ALT ([…], time 7 day) was 42.4 IU/L and the AST ([…], time 7 day) was 71.2 IU/L. For the same compound, the BUN ([…], time 7 day) was 19.6 mg/dL, the CRE ([…], time 7 day) was 0.2 mg/dL and the Ca ([…], time 7 day) was 10.8 mg/dL. For the same compound, the Cl ([…], time 7 day) was 107.6 meq/L, the DBIL ([…], time 7 day) was 0 mg/dL and the GLC ([…], time 7 day) was 169.2 mg/dL. It also gave an IP ([…], time 7 day) of 7 mg/dL, a K ([…], time 7 day) of 4.5 meq/L and an LDH ([…], time 7 day) of 152.8 IU/L. The Na ([…], time 7 day) was 141.6 meq/L, the PL ([…], time 7 day) was 138.6 mg/dL and the RALB ([…], time 7 day) was 3 g/dL. It also gave a TBIL ([…], time 7 day) of 0.008 mg/dL, a TC ([…], time 7 day) of 69.8 mg/dL and a TG ([…], time 7 day) of 103.2 mg/dL. It also gave a TP ([…], time 7 day) of 5.6 g/dL, a gamma-GTP ([…], time 7 day) of 2 IU/L and an ALP ([…], time 14 day) of 1210 IU/L. For the same compound, the ALT ([…], time 14 day) was 40.6 IU/L, the AST ([…], time 14 day) was 72 IU/L and the BUN ([…], time 14 day) was 18.6 mg/dL. It also gave a CRE ([…], time 14 day) of 0.2 mg/dL, a Ca ([…], time 14 day) of 10.6 mg/dL and a Cl ([…], time 14 day) of 106.2 meq/L. The DBIL ([…], time 14 day) was 0 mg/dL, the GLC ([…], time 14 day) was 176.8 mg/dL and the IP ([…], time 14 day) was 6.3 mg/dL. It also gave a K ([…], time 14 day) of 4.3 meq/L, an LDH ([…], time 14 day) of 142.8 IU/L and a Na ([…], time 14 day) of 141.4 meq/L. It also gave a PL ([…], time 14 day) of 142.4 mg/dL, an RALB ([…], time 14 day) of 3.1 g/dL and a TBIL ([…], time 14 day) of 0.018 mg/dL. The TC ([…], time 14 day) was 73.6 mg/dL, the TG ([…], time 14 day) was 110.2 mg/dL and the TP ([…], time 14 day) was 5.8 g/dL. For the same compound, the gamma-GTP ([…], time 14 day) was 2.4 IU/L, the ALP ([…], time 28 day) was 899.6 IU/L and the ALT ([…], time 28 day) was 38 IU/L. The AST ([…], time 28 day) was 69.2 IU/L, the BUN ([…], time 28 day) was 16 mg/dL and the CRE ([…], time 28 day) was 0.2 mg/dL. For the same compound, the Ca ([…], time 28 day) was 10.4 mg/dL, the Cl ([…], time 28 day) was 106.2 meq/L and the DBIL ([…], time 28 day) was 0.002 mg/dL. The GLC ([…], time 28 day) was 166.8 mg/dL, the IP ([…], time 28 day) was 5.6 mg/dL and the K ([…], time 28 day) was 4.1 meq/L. It also gave an LDH ([…], time 28 day) of 105.2 IU/L, a Na ([…], time 28 day) of 142.6 meq/L and a PL ([…], time 28 day) of 129.8 mg/dL. It also gave an RALB ([…], time 28 day) of 3.2 g/dL, a TBIL ([…], time 28 day) of 0.034 mg/dL and a TC ([…], time 28 day) of 62.4 mg/dL. The TG ([…], time 28 day) was 93.8 mg/dL, the TP ([…], time 28 day) was 6.1 g/dL and the gamma-GTP ([…], time 28 day) was 1.8 IU/L.
